Earlier results as cited in US20040166069A1, “Boosting Tyrosinase Inhibiting Activity of Skin Whitening and Sunscreen Compositions” (priority 2003, published 2004).

Tested on: de-pigmentation
Conditions: relative to hydroquinone

SMILES | quantity required compared to the quantity of hydroquinone used to achieve a similar effect
OC[C@H]1O[C@@H](Oc2ccc(O)cc2)[C@H](O)[C@@H](O)[C@@H]1O [arbutin] | over 100 times
O=C1O[C@H]([C@@H](O)CO)C(O)=C1O [ascorbic acid] | 17 times
